Source: patent publication US8865408B2, “Signature for the diagnosis of cancer aggressiveness and genetic instability” (Centre National de la Recherche Scientifique (CNRS), priority 2009, dated 2014)

Key:
MCF7 cells = experiment: Clonogenic assay, sensitivity to Chk2 inhibitor; format: cell-based; settings: MCF7 compared with MDA-MB231 cells, 1 μM to 150 μM during 16 hours, seven more days
Protocol: FIG. 12. Effect of POLQ gene expression level on sensitivity to a Chk2 inhibitor. […] Survival is determined in a clonogenic assay. MCF7: squares; MDA-MB231: diamonds (B) POLQ expression is higher in MCF7 than in MDA-MB231. Gene expression levels are assayed by RT-PCR. C51 is a normal breast cell line.
MDA-MB231 and MCF7 breast cancer cells (ATCC) were grown in RPMI 1640+ glutamax medium. A 13.8 mM Chk2 inhibitor II Hydrate (Sigma RefC3742) stock solution was prepared by diluting the agent in DMSO (Sigma) and stored at −20° C. This solution was diluted in culture medium to give as indicated the final drug concentration. Cells were exposed to different concentrations ranging from 1 μM to 150 μM during 16 hours. Cells were washed with PBS buffer, fresh medium was added and cells were incubated for seven more days. Cells were fixed with NaCl 0.9% and stained with crystal violet (Sigma C3886). Clones containing more than 20 cells were counted. For the clonogenic assay 400 cells were seeded in six-well plates and incubated overnight. The POLQ expression was measured by real-time PCR as described above.
Cells overexpressing POLQ accumulate DNA damage. […] In order to test this hypothesis, the viability of the MCF7 and MDA-MB231 cells was determined in the presence of increasing amounts of a Chk2 inhibitor. […]

[1] = tested on: POLQ overexpressing (Q1, Q2, Q3) and isogenic control (CTL2, CTL5) cells; experiment: Clonogenic assay, sensitivity to alkylating agents; format: cell-based, human; settings: POLQ over-expressing clones vs isogenic controls; MMS 1 h at 37° C., MNU continuous
Protocol: FIG. 9. Sensitivity to alkylating agents. Drug sensitivity was determined by clonogenic assay. Sensitivity of POLQ overexpressing (Q1, Q2, Q3) and isogenic control (CTL2, CTL5) cells to methyl methanesulfonate (MMS) and N-methyl-N-nitrosourea (MNU). Survival is expressed as the relative plating efficiency of treated cells to the controls. […] Results are the mean+/−SD of at least three separate experiments performed in duplicate.
POLQ overexpression was immuno-detected as published (Seki et al. Nucleic Acids Res 31: 6117-6126, 2003), using purified protein as a size control.
Treatment was 1 h at 37° C. for methyl methanesulfonate (MMS) and continuous for N-methyl-N-nitrosourea (MNU) Immunodetection of γ-H2AX and PT68-CHK2 was carried out according to Rao et al. (Rao et al. Mol Cancer Res 5:713-24, 2007).
A proposed role of POLQ in BER could be that over-expressed POLQ interferes with the BER pathway and leads to an accumulation of endogenous DNA damage (including damage generated by reactive oxygen species). To test this hypothesis, we measured the sensitivity of the POLQ over-expressing cells to methyl-methanesulfonate (MMS) and Nitroso-N-methylurea (MNU) (FIG. 9), both of which induce DNA damage repaired by BER.

Row | Compound | sensitivity to Chk2 inhibitor (survival in clonogenic assay) (MCF7 cells) | sensitivity to Chk2 inhibitor (survival in clonogenic assay) (MCF7 cells; listed as CHK2 inhibitor) | effect of POLQ over-expression on survival to treatment [1]
1 | NC(=O)c1ccc2nc(-c3ccc(Oc4ccc(Cl)cc4)cc3)[nH]c2c1.O [Chk2 inhibitor II Hydrate] | higher sensitivity | hypersensitive | 
2 | COS(C)(=O)=O [MMS, methyl methanesulfonate] |  |  | did not significantly affect survival
3 | CN(N=O)C(N)=O [MNU, N-methyl-N-nitrosourea] |  |  | did not significantly affect survival
